The source of these data is paper PMC6018403 (Frontiers in Pharmacology, 2018).

Each structure is given as a SMILES string. Like-named read-outs stand apart in the source and are kept apart here.

This series can be described thus: Multi-component pharmacokinetic study of GQD, GQD-GC and single herb extracts in rats (plasma, LC/MS/MS). It is filed as in vivo, Sprague-Dawley rats. How it is done:
Male Sprague-Dawley rats (220–250 g) were used for PK study, and the details were described in Supplemental Data. All procedures were in accordance with the National Institutes of Health Guide for the Care and Use of Laboratory Animals.
For PK study of GQD and its component herbs, rats were randomly divided into six groups (n = 10 for each group) before oral administration.
All blood samples were immediately centrifuged at 6,000 rpm (4°C) for 20 min to obtain plasma. The plasma samples were stored at −80°C.
A Finnigan TSQ Quantum triple quadrupole mass spectrometer was connected to a Surveyor HPLC via ESI interface (ThermoFisher). High purity nitrogen was used as the sheath and auxiliary gas; Ultra-high purity argon was used as the collision gas (1.5 mTorr). Q1 and Q3 quadrupoles were set at unit resolution. […] The column temperature was 40°C. The mobile phase consisted of acetonitrile containing 2% (v/v) methanol (A) and water containing 0.1% (v/v) formic acid (B). […] An aliquot of 5 μL was injected for analysis. UV spectra were obtained by scanning from 200 to 400 nm. The mass spectrometer was operated in the (+)-ESI mode. The optimized parameters were as follows: sheath gas (N2), 50 arb; auxiliary gas (N2), 5 arb; spray voltage, 4.0 kV; capillary temperature, 330°C; collision energy, see Table S1. Analytes were detected in the selected reaction monitoring (SRM) mode. Data were processed by Xcalibur 2.0.7 software (ThermoFisher).
LC/MS/MS calibration and quantitation data were processed with Xcalibur 2.0.7 software (ThermoFisher). The maximal plasma concentrations (Cmax) and their time of occurrence (Tmax) were obtained directly from the measured data. Other pharmacokinetic parameters were calculated by non-compartment or compartment models using WinNonlin® software (v6.1, Pharsight). Unless otherwise stated, results were expressed as the mean ± SD. Statistical significance in differences of the means was determined by Student's t–test, with a significance level of P < 0.05.
Herbal materials and extracts.
The four component herbs, Puerariae Lobatae Radix (Ge-Gen, GG), Scutellariae Radix (Huang-Qin, HQ), Coptidis Rhizoma (Huang-Lian, HL), and Glycyrrhizae Radix et Rhizoma Praeparata cum Melle (Gan-Cao, GC) were purchased from Tianheng Pharmacy. GQD was prepared by decocting the four component herbs […]
pre-extraction of Ge-Gen using 200 mL of water for 0.5 h. The decoctions were combined, filtered, and concentrated in vacuum at 50 °C. GQD-GC was prepared using the same procedure, except that Gan-Cao was removed from the formula. Final concentration of the GQD-GC extract was equivalent to 1.0 g of the crude drugs per mL. For single herb extracts, the herbs were decocted in 8-fold volume of water for […]
Final concentrations of the extracts were 1.0 g/mL for Ge-Gen, and 0.5 g/mL for Huang-Qin, Huang-Lian and […]
For pharmacokinetic study, Male Sprague-Dawley rats (220-250 g) were obtained from the Laboratory Animal Center of Peking University Health Science Center. The […]
The rats had free access to tap water and soy-free custom diet (Ke’ao Xieli Co.). All procedures were in accordance with the National Institutes of Health Guide for the Care and Use of Laboratory Animals […]
Experimental details for the PK study
1. Preparation of internal standard solution, calibration standard solutions, and quality control solutions […]
internal standard solution. Reference standard compounds were dissolved in the internal standard solution to prepare individual stock solutions (1.0 mg/mL). These […]
each compound. The standard solution was then serially diluted to obtain calibration […]
Quality control stock solutions were prepared at three concentration levels as high QC (HQC), middle QC (MQC), and low QC (LQC), based on linear ranges of the analytes.
2.1. Sample preparation for pharmacokinetic study
The calibration standard and quality control solutions for pharmacokinetic study were […]

Setting [1] is: male, Sprague-Dawley, rat, plasma, po, 18.9 g/kg, GQD group: rats, oral GQD extract 18.9 g/kg, plasma, read-out: AUClast.
The mark [2] stands for this setting: male, Sprague-Dawley, rat, plasma, po, 18.9 g/kg, GQD group: rats, oral GQD 18.9 g/kg (1.5-fold of clinical dosage), plasma, read-out: AUClast.
The mark [3] stands for this setting: male, Sprague-Dawley, rat, GQD group: rats, oral GQD extract 18.9 g/kg, plasma, read-out: Cmax.
[4] abbreviates: male, Sprague-Dawley, rat, GQD group: rats, oral GQD extract 18.9 g/kg, plasma, read-out: T1/2 (converted).
Setting [5] is: male, Sprague-Dawley, rat, GQD group: rats, oral GQD extract 18.9 g/kg, plasma, read-out: Tmax.
Setting [6] is: male, Sprague-Dawley, rat, in vivo, po, 3.54 g/kg.
The mark [7] stands for this setting: male, Sprague-Dawley, rat, in vivo, po, 16.5 g/kg.
Setting [8] is: male, Sprague-Dawley, rat, in vivo, po, 18.9 g/kg.
Where [9] appears, read: male, Sprague-Dawley, rat, in vivo, po, 18.9 g/kg, AUClast.
[10] abbreviates: male, Sprague-Dawley, rat, in vivo, po, 2.36 g/kg.
Setting [11] is: male, Sprague-Dawley, rat, in vivo, po, 2.36 g/kg, AUClast.
The mark [12] stands for this setting: male, Sprague-Dawley, rat, plasma, po, 2.36 g/kg, GC (Gan-Cao) group: rats, oral extract 2.36 g/kg, plasma, read-out: AUClast.
[13] abbreviates: male, Sprague-Dawley, rat, GC (Gan-Cao) group: rats, oral extract 2.36 g/kg, plasma, read-out: Cmax.
Setting [14] is: male, Sprague-Dawley, rat, GC (Gan-Cao) group: rats, oral extract 2.36 g/kg, plasma, read-out: T1/2 (converted).
Where [15] appears, read: male, Sprague-Dawley, rat, GC (Gan-Cao) group: rats, oral extract 2.36 g/kg, plasma, read-out: Tmax.

Regarding `COc1cc2c(cc1O)CC[n+]1cc3c(OC)c(OC)ccc3cc1-2` [Compound 23, jatrorrhizine], the AUC(0-t) was 119 ± 52.4 ng·h/mL (male, Sprague-Dawley, rat, plasma, po, 3.54 g/kg, HL (Huang-Lian) group: rats, oral extract 3.54 g/kg, plasma, read-out: AUClast); 119 ± 52.4 ng·h/mL (male, Sprague-Dawley, rat, plasma, po, 3.54 g/kg, Huang-Lian group: rats, oral 3.54 g/kg, plasma, read-out: AUClast); 105 ± 34.2 ng·h/mL (male, Sprague-Dawley, rat, plasma, po, 16.5 g/kg, GQD-GC group (GQD without Gan-Cao): rats, oral 16.5 g/kg, plasma, read-out: AUClast); 105 ± 34.2 ng·h/mL (male, Sprague-Dawley, rat, plasma, po, 16.5 g/kg, GQD−GC group: rats, oral 16.5 g/kg, plasma, read-out: AUClast); 195 ± 25.7 ng·h/mL under setting [1]; greater than 100 ng·h/mL under setting [2]. For the same molecule, the Cmax reads like this: under setting [3], 8.54 ± 0.05 ng/mL; (male, Sprague-Dawley, rat, GQD-GC group (GQD without Gan-Cao): rats, oral 16.5 g/kg, plasma, read-out: Cmax) 9.14 ± 0.82 ng/mL; (male, Sprague-Dawley, rat, HL (Huang-Lian) group: rats, oral extract 3.54 g/kg, plasma, read-out: Cmax) 6.6 ± 0.59 ng/mL. For the same molecule, the half-life is, setting by setting: under setting [4], 6.97 ± 1.77 h; (male, Sprague-Dawley, rat, GQD-GC group (GQD without Gan-Cao): rats, oral 16.5 g/kg, plasma, read-out: T1/2 (converted)) 3.12 ± 0.13 h; (male, Sprague-Dawley, rat, HL (Huang-Lian) group: rats, oral extract 3.54 g/kg, plasma, read-out: T1/2 (converted)) 5.15 ± 1.74 h. In addition, the Tmax is, setting by setting: under setting [5], 0.72 ± 0.11 h; (male, Sprague-Dawley, rat, GQD-GC group (GQD without Gan-Cao): rats, oral 16.5 g/kg, plasma, read-out: Tmax) 0.63 ± 0.32 h; (male, Sprague-Dawley, rat, HL (Huang-Lian) group: rats, oral extract 3.54 g/kg, plasma, read-out: Tmax) 0.61 ± 0.11 h. Further, under “rats, oral, GQD vs Huang-Lian”, the “increase of AUClast in GQD group compared with the Huang-Lian group” value was determined as 63.6%.
On to `COc1cc2c(cc1OC)-c1cc3ccc(OC)c(OC)c3c[n+]1CC2` [Compound 25, palmatine], for which, under “male, Sprague-Dawley, rat, in vivo, po”, the “increase of AUClast in GQD group compared with the Huang-Lian group” value came to 32.7%. In addition, the Cmax under setting [6] was 5.96 ± 1.35 ng/mL, the highest level under setting [7] (Cmax) was 4.75 ± 10.2 ng/mL and the concentration under setting [8] peaked (Cmax) at 17.1 ± 2.98 ng/mL. The Tmax by setting is: under setting [6], 0.25 ± 1.25 h; under setting [7], 0.26 ± 0.15 h; under setting [8], 0.17 ± 0.03 h. Also, the half-life was 3.25 ± 2.43 h under setting [6], 3.03 ± 2.36 h under setting [7] and 1.62 ± 1.82 h under setting [8]. Also, the AUC(0-t) runs as follows: (male, Sprague-Dawley, rat, in vivo, po, 3.54 g/kg, AUClast) 51.5 ± 27.8 ng·h/mL; (male, Sprague-Dawley, rat, in vivo, po, 16.5 g/kg, AUClast) 43.4 ± 17 ng·h/mL; under setting [9], 68.3 ± 39.2 ng·h/mL.
As for `O=C1C[C@@H](c2ccc(O[C@@H]3O[C@H](CO)[C@@H](O)[C@H](O)[C@H]3O)cc2)Oc2cc(O)ccc21` [Compound 26, liquiritin], under setting [10], the concentration peaked (Cmax) at 18.6 ± 7.53 ng/mL, the T1/2 is given as 7.84 ± 0.38 h and the Tmax was found to be 1.34 ± 3 h. This molecule displayed an AUC(0-t) under setting [11] of 237 ± 92.4 ng·h/mL. Further, under setting [8], the AUClast stood at 416.94 ± 210.31 ng·h/mL, the highest level (Cmax) was 20.8 ± 1.86 ng/mL, the Tmax worked out at 2.5 ± 4.76 h and the half-life was 12.1 ± 1.16 h. The same molecule showed an AUC(0-t) under setting [9] greater than 300 ng·h/mL. In addition, the “plasma concentrations, effect of GQD compared with Gan-Cao” value (rat, in vivo, po) was “improved”.
On to `O=C(/C=C/c1ccc(O[C@@H]2O[C@H](CO)[C@@H](O)[C@H](O)[C@H]2O)cc1)c1ccc(O)cc1O` [Compound 27, isoliquiritin], for which the AUC(0-t) is, setting by setting: (male, Sprague-Dawley, rat, in vivo, po, 2.36 g/kg, GC (Gan-Cao) group: rats, oral extract 2.36 g/kg, plasma, read-out: AUClast) 8.46 ± 2.99 ng·h/mL; (male, Sprague-Dawley, rat, in vivo, po, 18.9 g/kg, GQD group: rats, oral GQD extract 18.9 g/kg, plasma, read-out: AUClast) 11.9 ± 2.4 ng·h/mL. For the same molecule, the maximum concentration (Cmax) (male, Sprague-Dawley, rat, in vivo, GC (Gan-Cao) group: rats, oral extract 2.36 g/kg, plasma, read-out: Cmax) stood at 2.17 ± 0.98 ng/mL and the Cmax (male, Sprague-Dawley, rat, in vivo, GQD group: rats, oral GQD extract 18.9 g/kg, plasma, read-out: Cmax) came to 2.59 ± 2.43 ng/mL. In addition, the half-life is, setting by setting: (male, Sprague-Dawley, rat, in vivo, GC (Gan-Cao) group: rats, oral extract 2.36 g/kg, plasma, read-out: T1/2 (converted)) 0.91 ± 0.08 h; (male, Sprague-Dawley, rat, in vivo, GQD group: rats, oral GQD extract 18.9 g/kg, plasma, read-out: T1/2 (converted)) 1.62 ± 0.33 h. The Tmax reads like this: (male, Sprague-Dawley, rat, in vivo, GC (Gan-Cao) group: rats, oral extract 2.36 g/kg, plasma, read-out: Tmax) 0.4 ± 1.23 h; (male, Sprague-Dawley, rat, in vivo, GQD group: rats, oral GQD extract 18.9 g/kg, plasma, read-out: Tmax) 0.49 ± 1.01 h. The “plasma concentrations, effect of GQD compared with Gan-Cao” value (rats, oral) is reported as “improved”.
Turning to `O=C(/C=C/c1ccc(O)cc1)c1ccc(O)cc1O` [Compound 28, isoliquiritigenin], the AUC(0-t) amounted to 1.28 ± 0.03 ng·h/mL under setting [12] and 39.2 ± 8.9 ng·h/mL under setting [1]. For the same molecule, the Cmax by setting is: under setting [13], 1.16 ± 0.52 ng/mL; under setting [3], 2.81 ± 0.87 ng/mL. In addition, the half-life is 0.28 ± 0.08 h under setting [14] and 3.55 ± 0.08 h under setting [4]. Moreover, the Tmax is 0.41 ± 0.47 h under setting [15] and 5.33 ± 0.89 h under setting [5].
As for `O=C1C[C@@H](c2ccc(O)cc2)Oc2cc(O)ccc21` [Compound 29, liquiritigenin], the Cmax reads like this: under setting [10], 22.63 ± 0.22 ng/mL; under setting [8], 27.4 ± 9.97 ng/mL. The Tmax is, setting by setting: under setting [10], 1 ± 2.34 h; under setting [8], 1 ± 0.93 h. Moreover, the half-life by setting is: under setting [10], 9.84 ± 3.52 h; under setting [8], 11.2 ± 7.69 h. Also, the AUC(0-t) runs as follows: under setting [11], 75.4 ± 81.1 ng·h/mL; under setting [9], 153 ± 9.34 ng·h/mL.
As to `COc1c(CC=C(C)C)c(O)cc2oc(=O)c(-c3ccc(O)cc3O)cc12` [Compound 30, glycycoumarin], the AUC result (Gan-Cao group: rats, oral 2.36 g/kg, plasma) is “not detected”. The AUC(0-t) under setting [1] came out at 37.9 ± 29.9 ng·h/mL and the AUC(0-t) under setting [2] was 37.9 ± 29.9 ng·h/mL. Under setting [3], the Cmax came out at 7.47 ± 8.1 ng/mL. In addition, the half-life under setting [4] is 11.3 ± 3.38 h. Under setting [5], the Tmax turned out to be 2 ± 1.24 h. Further, the “plasma concentrations, effect of GQD compared with Gan-Cao” value (rats, oral) is listed as “improved”.
On to `COc1ccc(-c2coc3cc(O)ccc3c2=O)cc1` [Compound 32, formononetin], for which the AUC(0-t) is, setting by setting: under setting [12], 19.9 ± 7.99 ng·h/mL; under setting [1], 94.2 ± 32.6 ng·h/mL. The Cmax was determined as 1.71 ± 1 ng/mL under setting [13] and 8.62 ± 0.39 ng/mL under setting [3]. For the same molecule, the half-life under setting [14] was 3.22 ± 0.87 h and the half-life under setting [4] is 23.8 ± 16.8 h. For the same molecule, the Tmax reads like this: under setting [15], 0.33 ± 0.13 h; under setting [5], 2.92 ± 0.08 h. Besides, the “plasma concentrations, effect of GQD compared with Gan-Cao” value (rats, oral) is on record as “improved”.
